For six compounds, IC50 results are on record in patent US20230212180A1, “SUBSTITUTED PYRAZINE COMPOUND, PHARMACEUTICAL COMPOSITION COMPRISING SAME, AND USE THEREOF” (Sichuan Kelun-Biotech Biopharmaceutical Co., Ltd., priority 2020, published 2023).

Experiment [1] has as its target T1, recombinant full-length human PTPN11 (SHP2) (Homo sapiens, UniProt Q06124).
T1 construct: recombinant full-length human PTPN11 (SHP2), active (SignalChem); purchased SignalChem
T1 sequence (Q06124 1-593): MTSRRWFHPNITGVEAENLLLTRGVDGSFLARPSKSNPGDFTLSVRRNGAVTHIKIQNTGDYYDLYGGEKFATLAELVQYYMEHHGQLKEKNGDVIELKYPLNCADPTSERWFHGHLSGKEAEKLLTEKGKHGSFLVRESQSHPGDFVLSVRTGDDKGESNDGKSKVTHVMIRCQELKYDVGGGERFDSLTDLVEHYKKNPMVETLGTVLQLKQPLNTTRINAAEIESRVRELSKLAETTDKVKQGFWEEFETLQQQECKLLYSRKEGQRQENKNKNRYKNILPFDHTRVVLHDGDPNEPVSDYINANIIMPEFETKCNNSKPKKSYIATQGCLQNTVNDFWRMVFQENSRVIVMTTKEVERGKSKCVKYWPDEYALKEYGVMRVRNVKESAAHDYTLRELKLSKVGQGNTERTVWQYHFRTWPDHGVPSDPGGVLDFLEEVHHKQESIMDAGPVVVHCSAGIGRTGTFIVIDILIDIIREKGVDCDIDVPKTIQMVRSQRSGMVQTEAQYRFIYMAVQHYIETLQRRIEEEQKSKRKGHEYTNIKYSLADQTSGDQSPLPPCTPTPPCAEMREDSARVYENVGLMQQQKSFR
The experiment is described as follows: Inhibition of in vitro enzyme activity of SHP2 (DiFMUP fluorescence endpoint assay). The settings on record: SHP2 0.5 nM, DiFMUP 200 μM, IRS-1 0.5 μM; 60 min incubation. It counts as biochemical. As for the experimental part: Test Example 1: Experiment on the Inhibition of In Vitro Enzyme Activity of SHP2 (Protein Phosphatase)
phosphatase: recombinant full-length human PTPN11 (SHP2), active (SignalChem);
substrate: 6,8-difluoro-4-methylumbelliferyl phosphate (DiFMUP) (Invitrogen);
activating peptide: IRS1_pY1172(dPEG8)pY1222 (IRS1) (BPS Bioscience);
terminator: bpv(phen) (bpv) (Abcam).
SHP2 concentration: 0.5 nM;
DiFMUP concentration: 200 μM;
IRS-1 concentration: 0.5 μM;
bpv concentration: 160 μM;
buffer systems: 60 mM Hepes pH 7.2; 75 mM NaCl; 75 mM KCl; 0.05% surfactant P20; 1 mM EDTA; 5 mM DTT;
incubation duration of compound and enzyme: 60 minutes;
reaction time of enzyme and substrate: 30 minutes;
parameters for microplate reader: BMG PHERAstar fluorescence microplate reader at an excitation wavelength of 340 nm and an emission wavelength of 450 nm.
Test group: A mixture of the test compound and the phosphatase SHP2 together with the activating peptide IRS-1 were incubated in the buffer system at room temperature for 60 minutes. The substrate DiFMUP was added to initiate the reaction and incubated at room temperature for 30 minutes. Thereafter, bpv was added to terminate the reaction. The reaction plate was placed in the microplate reader, and the fluorescence intensities of the wells in the plate were measured using an endpoint assay.
Negative group: The experimental method for the negative group was the same as that for the test group, except that the test compound was substituted with 0.05% aqueous solution of DMSO.
Blank group: The experimental method for the blank group was the same as that for the test group, except that the test compound was substituted with 0.05% aqueous solution of DMSO and that SHP2 was not added.
The relative inhibitory activity was calculated for the test group at each concentration based on the following equation: inhibition rate (%)=100%−(the fluorescence intensity of the test group−the fluorescence intensity of the blank group)/(the fluorescence intensity of the negative group−the fluorescence intensity of the blank group)×100%. The half maximal inhibitory concentration (IC50) of the compound was calculated by fitting the curve according to the four-parameter logistic model.

Another experiment deals with T2, hERG (Homo sapiens, UniProt Q12809).
T2 construct: purchased ThermoFisher
T2 sequence (Q12809 whole entry): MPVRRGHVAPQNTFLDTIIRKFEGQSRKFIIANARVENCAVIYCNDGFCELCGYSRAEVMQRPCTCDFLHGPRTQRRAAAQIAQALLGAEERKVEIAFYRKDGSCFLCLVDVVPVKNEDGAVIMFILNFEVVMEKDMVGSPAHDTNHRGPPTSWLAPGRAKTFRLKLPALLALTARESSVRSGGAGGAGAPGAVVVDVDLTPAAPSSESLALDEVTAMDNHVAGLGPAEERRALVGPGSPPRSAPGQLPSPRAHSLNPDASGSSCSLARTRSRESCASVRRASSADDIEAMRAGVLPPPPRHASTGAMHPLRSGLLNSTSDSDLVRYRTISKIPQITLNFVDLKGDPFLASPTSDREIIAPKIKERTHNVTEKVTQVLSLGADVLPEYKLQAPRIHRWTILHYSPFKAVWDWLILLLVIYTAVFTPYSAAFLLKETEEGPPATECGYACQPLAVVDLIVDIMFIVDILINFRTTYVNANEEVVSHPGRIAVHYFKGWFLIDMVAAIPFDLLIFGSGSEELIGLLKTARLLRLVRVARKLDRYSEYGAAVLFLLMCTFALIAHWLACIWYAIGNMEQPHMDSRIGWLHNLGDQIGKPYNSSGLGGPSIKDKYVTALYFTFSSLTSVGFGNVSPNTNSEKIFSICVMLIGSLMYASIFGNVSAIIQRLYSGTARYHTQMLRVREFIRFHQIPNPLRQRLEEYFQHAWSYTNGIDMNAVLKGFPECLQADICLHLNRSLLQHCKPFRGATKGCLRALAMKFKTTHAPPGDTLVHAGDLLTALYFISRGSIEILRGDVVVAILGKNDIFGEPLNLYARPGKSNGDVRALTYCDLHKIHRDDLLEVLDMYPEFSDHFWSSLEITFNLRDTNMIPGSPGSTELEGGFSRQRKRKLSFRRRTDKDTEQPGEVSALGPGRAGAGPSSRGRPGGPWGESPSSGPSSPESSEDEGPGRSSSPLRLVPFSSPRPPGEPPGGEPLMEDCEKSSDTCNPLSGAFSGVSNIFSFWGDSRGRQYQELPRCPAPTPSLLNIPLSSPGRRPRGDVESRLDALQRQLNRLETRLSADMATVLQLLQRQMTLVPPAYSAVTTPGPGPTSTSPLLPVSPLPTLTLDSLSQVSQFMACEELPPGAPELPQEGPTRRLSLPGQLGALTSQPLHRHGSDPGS
The experiment is described as follows: Biochemical assay for hERG inhibition (Predictor hERG Fluorescence Polarization Assay Kit). It counts as binding. As for the experimental part: Test Example 3: Biochemical Assay for hERG Inhibition
kit: Predictor™ hERG Fluorescence Polarization Assay Kit (ThermoFisher) containing:
Compound E4031 as a positive control;
tracer concentration: 1 nM;
incubation duration: 2 hours;
parameters for microplate reader: BMG PHERAstar FS fluorescence microplate reader.
Test group: The test compounds at different concentrations were added into a microplate containing hERG cell membrane, and the tracer with a high affinity for hERG was then added into each well. The microplate was incubated at 25° C. for 2 hours before detection of the change in fluorescence polarization value (mP) (excitation wavelength: 540 nm; emission wavelength: 590 nm) using a multi-mode microplate reader.
Positive control group: The experimental method for the positive control group was the same as that for the test group, except that the test compound was replaced with 30 μM Compound E4031.
Blank control group: The experimental method for the blank control group was the same as that for the test group, except that the test compound was replaced with the hERG buffer and that the hERG cell membrane was not added.
Based on the data ratios, the percentage inhibition (%) of the compounds of the present disclosure against hERG at different concentrations was calculated and the range of the half maximal inhibitory concentration (IC50) of the compounds was determined. Percentage inhibition (%)=(1−(mP of the test compound−mP of the positive control group)/(mP of the blank control group−mP of the positive control group))×100%.

Experiment [2] relates to KYSE-520 cell (human esophageal squamous cell carcinoma cell). The experiment in a line: Inhibition of the proliferation activity of KYSE-520 cell (CellTiter-Glo). It counts as cell-based. The settings on record: 120 h, KYSE-520 cell proliferation, 5 days. Here is the method:
Test Example 2: Experiment on the Inhibition of the Proliferation Activity of KYSE-520 Cell (Human Esophageal Squamous Cell Carcinoma Cell)
cell: KYSE-520 (JCRB Cell Bank);
kit: CellTiter-Glo® Luminescent Cell Viability Assay Kit (Promega).
inoculation amount of cell: 1500 cells/well;
incubation conditions for compound: 37° C., 5% CO2;
incubation duration: 5 days;
detecting temperature: room temperature;
chemiluminescence detection using the BMG PHERAstar FS reader.
Cells were cultured in a medium containing 10% fetal bovine serum under the culture conditions of 37° C. and 5% CO2. An appropriate amount of cells were plated into a 96-well plate and cultured overnight in an incubator to allow the cells to adhere to the wall. The following day, the medium was removed and a complete medium containing a pre-diluted compound was added and incubated at 37° C. for 5 days. On the fifth day, the detection reagent CellTiter-Glo® was added into each well. Chemiluminescence was adopted to detect the relative luminescence units (RLUs) of the wells.
The result of a well containing cell-free medium, treated with CellTiter-Glo®, was obtained as the blank value. Cell viability (%)=(sample RLU−blank RLU)/(vehicle RLU−blank RLU)×100%, and maximum inhibition rate (%)=100%−cell viabilitymax. conc. (%). The half maximal inhibitory concentration (IC50) of the compound was calculated by fitting the curve according to the four-parameter logistic model.

Where only a bound is given, the exact number is not on record here.

By IC50 is commonly meant the concentration needed to halve the response being measured. Regarding `N[C@@H]1COCC12CCN(c1ncc(Sc3ccnc(N4CCCC4CO)c3Cl)nc1CO)CC2` (stereo partly drawn) [Example 7, (3-((S)-4-amino-2-oxa-8-azaspiro[4.5]decan-8-yl)-6-(3-chloro-2-(2-(hydroxymethyl)pyrrolidin-1-yl)pyridin-4-ylthio)pyrazin-2-yl)methanol], the IC50 was 4.6 nM in experiment [1], greater than 10000 nM at hERG and 770 nM in experiment [2].
The matching figures for `C[C@@H]1OCC2(CCN(c3ncc(Sc4ccnc(N5CC(F)(CO)C5)c4Cl)nc3CO)CC2)[C@@H]1N` [Example 39, (3-((3S,4S)-4-amino-3-methyl-2-oxa-8-azaspiro[4.5]decan-8-yl)-6-(3-chloro-2-(3-fluoro-3-(hydroxymethyl)azetidin-1-yl)pyridin-4-ylthio)pyrazin-2-yl)methanol]: 1.4 nM, greater than 10000 nM and 20 nM.
With `C[C@@H]1OCC2(CCN(c3ncc(Sc4ccnc(N5CC(C(C)(C)C#N)C5)c4Cl)nc3CO)CC2)[C@@H]1N` [Example 30, 2-(1-(4-(5-((3S,4S)-4-amino-3-methyl-2-oxa-8-azaspiro[4.5]decan-8-yl)-6-(hydroxymethyl)pyrazin-2-ylthio)-3-chloropyridin-2-yl)azetidin-3-yl)-2-methylpropanenitrile], the values for the IC50 (in experiment [1]; at hERG) were 4 nM and greater than 10000 nM, respectively.
Consider `C[C@@H]1OCC2(CCN(c3ncc(Sc4ccnc(N5CC[C@H]5CO)c4Cl)nc3CO)CC2)[C@@H]1N` [Example 9, (3-((3S,4S)-4-amino-3-methyl-2-oxa-8-azaspiro[4.5]decan-8-yl)-6-(3-chloro-2-((S)-2-(hydroxymethyl)azetidin-1-yl)pyridin-4-ylthio)pyrazin-2-yl)methanol], for which the results for the half-inhibitory concentration (IC50) (in experiment [1]; on hERG; in experiment [2]) were 1.3 nM, greater than 10000 nM and 220 nM, respectively.
The matching figures for `C[C@@H]1OCC2(CCN(c3ncc(Sc4ccnc(N5CCCC5CO)c4Cl)nc3CF)CC2)[C@@H]1N` (stereo partly drawn) [Example 4, (1-(4-(5-((3S,4S)-4-amino-3-methyl-2-oxa-8-azaspiro[4.5]decan-8-yl)-6-(fluoromethyl)pyrazin-2-ylthio)-3-chloropyridin-2-yl)pyrrolidin-2-yl)methanol]: 4.1 nM, greater than 10000 nM and 170 nM.
The corresponding values for `C[C@@H]1OCC2(CCN(c3ncc(Sc4ccnc(N5CCCC5CC#N)c4Cl)nc3CO)CC2)[C@@H]1N` (stereo partly drawn) [Example 18, 2-(1-(4-(5-((3S,4S)-4-amino-3-methyl-2-oxa-8-azaspiro[4.5]decan-8-yl)-6-(hydroxymethyl)pyrazin-2-ylthio)-3-chloropyridin-2-yl)pyrrolidin-2-yl)acetonitrile] are 1.9 nM, greater than 10000 nM and 240 nM.
